Assay results as given in patent US8906925B2, “Pyrido[4,3-B]indoles containing rigid moieties” (Medivation Technologies, Inc., priority 2008, dated 2014).

Columns and labels:
[1] = target: T1, human recombinant histamine H2 receptor (Homo sapiens, UniProt P25021); assay: Histamine H2 radioligand binding ([125I]Aminopotentidine); conditions: read-out: Histamine Binding (1 μM) H2, percent inhibition of specific binding, 1 μM
T1 construct: expressed in transfected cells; host or cells: Chinese hamster ovary (CHO) K1 cells
T1 sequence (P25021 whole entry): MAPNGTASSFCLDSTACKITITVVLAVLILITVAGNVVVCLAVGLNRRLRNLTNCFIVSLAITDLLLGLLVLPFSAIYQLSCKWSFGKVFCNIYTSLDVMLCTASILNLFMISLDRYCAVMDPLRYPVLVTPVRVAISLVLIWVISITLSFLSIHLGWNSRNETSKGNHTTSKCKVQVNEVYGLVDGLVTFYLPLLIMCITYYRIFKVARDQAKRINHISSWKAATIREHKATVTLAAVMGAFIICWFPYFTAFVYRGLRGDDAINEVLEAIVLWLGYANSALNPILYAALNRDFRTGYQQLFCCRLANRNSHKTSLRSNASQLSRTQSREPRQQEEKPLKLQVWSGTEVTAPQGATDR
Method: To evaluate in radioligand binding assays the activity of compounds of the invention, human recombinant histamine H2 receptor expressed in Chinese hamster ovary (CHO) K1 cells (Ruat, M., Proc. Natl. Acad. Sci. USA. 87(5):1658, 1990) in a 50 mM Phosphate buffer, pH 7.4 was used. Compounds of the invention were incubated with 0.1 nM [^125I]Aminopotentidine for 120 min. at 25° C. Non-specific binding was estimated in the presence of 3 μM Tiotidine. Receptor proteins were filtered and washed, the filters were then counted to determine [^125I]Aminopotentidine specifically bound.

[2] = target: T2, human recombinant serotonin (5-Hydroxytryptamine) 5-HT2A receptor (Homo sapiens, UniProt P28223); assay: Serotonin 5-HT2A radioligand binding ([3H]Ketanserin); conditions: read-out: Inhibition of ligand binding, Serotonin 5-HT2A (percent inhibition of specific binding), compound at 1 μM
T2 construct: expressed in transfected cells; host or cells: Chinese hamster ovary (CHO-K1) cells
T2 sequence (P28223 whole entry): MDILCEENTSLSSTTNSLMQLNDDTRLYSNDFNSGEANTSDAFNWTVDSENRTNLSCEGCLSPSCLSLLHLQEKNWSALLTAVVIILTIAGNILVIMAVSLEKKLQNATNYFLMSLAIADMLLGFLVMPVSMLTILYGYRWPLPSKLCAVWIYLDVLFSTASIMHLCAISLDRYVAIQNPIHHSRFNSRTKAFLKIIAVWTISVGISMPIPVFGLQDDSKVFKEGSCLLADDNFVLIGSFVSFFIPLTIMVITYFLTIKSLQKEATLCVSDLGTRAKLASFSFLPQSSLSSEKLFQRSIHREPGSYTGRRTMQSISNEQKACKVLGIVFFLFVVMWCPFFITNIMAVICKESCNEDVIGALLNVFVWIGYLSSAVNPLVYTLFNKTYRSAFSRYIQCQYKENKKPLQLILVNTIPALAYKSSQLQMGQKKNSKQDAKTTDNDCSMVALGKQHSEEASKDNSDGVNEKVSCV
Method: Compounds of the invention were incubated with 0.5 nM [^3H]Ketanserin for 60 min. at 25° C. Non-specific binding was estimated in the presence of 1 μM Mianserin. Receptor proteins were filtered and washed, the filters were then counted to determine [^3H]Ketanserin specifically bound.

[3] = target: histamine receptor H1 (Homo sapiens, UniProt P35367); assay: Histamine H1 radioligand binding ([3H]Pyrilamine); conditions: read-out: Histamine Binding (1 μM) H1, percent inhibition of specific binding, 1 μM
histamine receptor H1, sequence (P35367 whole entry): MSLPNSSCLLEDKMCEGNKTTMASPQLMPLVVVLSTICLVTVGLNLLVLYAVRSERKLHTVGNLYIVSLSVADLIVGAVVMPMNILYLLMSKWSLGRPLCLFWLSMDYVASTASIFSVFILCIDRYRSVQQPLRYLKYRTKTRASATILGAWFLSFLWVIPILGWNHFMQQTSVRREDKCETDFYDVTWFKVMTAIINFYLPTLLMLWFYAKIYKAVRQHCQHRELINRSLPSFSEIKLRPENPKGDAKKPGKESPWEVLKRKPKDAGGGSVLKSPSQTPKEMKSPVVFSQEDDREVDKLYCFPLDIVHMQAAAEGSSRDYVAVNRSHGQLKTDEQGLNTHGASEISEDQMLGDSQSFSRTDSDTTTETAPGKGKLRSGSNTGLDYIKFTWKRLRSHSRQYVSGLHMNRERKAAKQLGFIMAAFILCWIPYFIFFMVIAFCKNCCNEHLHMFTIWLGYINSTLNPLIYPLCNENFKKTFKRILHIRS
Summary of the method: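 Values are percent inhibition of specific [3H]pyrilamine (1.2 nM) binding with compounds at ≤1 μM (1% DMSO vehicle); 180 min incubation at 25 °C, pH 7.4 Tris buffer, on CHO-expressed human H1 receptor; 1 μM pyrilamine defined nonspecific binding, bound ligand counted after filtration.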

[4] = target: human dopamine D2L receptor (Homo sapiens, UniProt P14416); assay: Dopamine D2L radioligand binding ([3H]Spiperone); conditions: percent inhibition of specific binding; compound at 1 μM; read-out: Inhibition of ligand binding, Dopamine D2L
human dopamine D2L receptor, sequence (P14416 whole entry): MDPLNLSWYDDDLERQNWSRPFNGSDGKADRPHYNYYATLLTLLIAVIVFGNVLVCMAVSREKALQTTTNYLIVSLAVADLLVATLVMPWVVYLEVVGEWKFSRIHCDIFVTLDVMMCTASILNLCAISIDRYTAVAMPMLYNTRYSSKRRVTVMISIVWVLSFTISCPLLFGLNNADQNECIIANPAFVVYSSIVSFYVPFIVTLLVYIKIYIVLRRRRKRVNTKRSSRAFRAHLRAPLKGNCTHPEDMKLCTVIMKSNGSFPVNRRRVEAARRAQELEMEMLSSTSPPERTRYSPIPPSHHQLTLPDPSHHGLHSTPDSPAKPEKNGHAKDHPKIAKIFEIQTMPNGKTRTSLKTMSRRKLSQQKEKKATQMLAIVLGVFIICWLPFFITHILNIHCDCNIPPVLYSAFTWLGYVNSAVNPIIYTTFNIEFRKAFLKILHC
Description: Non-specific binding was estimated in the presence of […] Haloperidol. Receptor proteins were filtered and washed, the filters were then counted to determine [^3H]Spiperone specifically bound. […] Biochemical assay results are presented as the percent inhibition of specific binding in Table 9.

[5] = target: T3, human recombinant serotonin (5-Hydroxytryptamine) 5-HT6 receptor (Homo sapiens, UniProt P50406); assay: Serotonin 5-HT6 radioligand binding ([3H]LSD); conditions: compound at 1 μM; read-out: Inhibition of ligand binding, Serotonin 5-HT6 (percent inhibition of specific binding)
T3 construct: expressed in transfected cells; host or cells: human HeLa cells
T3 sequence (P50406 whole entry): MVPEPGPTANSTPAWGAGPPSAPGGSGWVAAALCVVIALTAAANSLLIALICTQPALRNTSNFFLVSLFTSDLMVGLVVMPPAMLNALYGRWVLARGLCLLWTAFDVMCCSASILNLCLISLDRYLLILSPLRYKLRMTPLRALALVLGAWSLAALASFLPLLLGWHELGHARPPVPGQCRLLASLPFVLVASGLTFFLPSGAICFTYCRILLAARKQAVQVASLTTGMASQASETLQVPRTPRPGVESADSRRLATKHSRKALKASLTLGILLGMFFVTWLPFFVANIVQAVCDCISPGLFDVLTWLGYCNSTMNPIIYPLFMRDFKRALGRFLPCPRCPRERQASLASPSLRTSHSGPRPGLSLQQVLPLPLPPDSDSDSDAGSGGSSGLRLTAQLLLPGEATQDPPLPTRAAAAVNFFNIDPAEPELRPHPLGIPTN
Method: Compounds of the invention were incubated with 1.5 nM [3H]Lysergic acid diethylamide (LSD) for 120 min. at 37° C. […] Receptor proteins were filtered and washed, the filters were then counted to determine [3H]LSD specifically bound. Compounds were screened at 1 μM or lower, using 1% DMSO as vehicle. Biochemical assay results are presented as the percent inhibition of specific binding in Table 10.

[6] = target: T4, human recombinant serotonin (5-Hydroxytryptamine) 5-HT2C receptor (Homo sapiens, UniProt P28335); assay: Serotonin 5-HT2C radioligand binding ([3H]Mesulergine); conditions: compound at 1 μM; read-out: Inhibition of ligand binding, Serotonin 5-HT2C (percent inhibition of specific binding)
T4 construct: expressed in transfected cells; host or cells: Chinese hamster ovary (CHO-K1) cells
T4 sequence (P28335 33-458): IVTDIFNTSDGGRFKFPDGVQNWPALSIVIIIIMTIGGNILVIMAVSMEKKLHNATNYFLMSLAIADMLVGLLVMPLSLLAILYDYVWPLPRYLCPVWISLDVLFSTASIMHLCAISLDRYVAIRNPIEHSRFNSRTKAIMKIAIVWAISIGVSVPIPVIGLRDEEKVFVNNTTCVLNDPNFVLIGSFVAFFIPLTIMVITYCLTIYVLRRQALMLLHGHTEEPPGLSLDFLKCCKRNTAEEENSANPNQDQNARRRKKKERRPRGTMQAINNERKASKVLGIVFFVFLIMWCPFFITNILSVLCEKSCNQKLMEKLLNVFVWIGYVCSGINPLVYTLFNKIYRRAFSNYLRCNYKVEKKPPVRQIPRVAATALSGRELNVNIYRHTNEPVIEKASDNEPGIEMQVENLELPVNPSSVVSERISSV
Summary of the method: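 Compounds tested at 1 μM or lower (1% DMSO vehicle) for displacement of 1 nM [3H]Mesulergine over 60 min at 25° C. Specific binding determined by filtration counting, with 1 μM Mianserin defining non-specific binding; values are percent inhibition.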

[7] = target: human recombinant serotonin (5-Hydroxytryptamine) 5-HT7 receptor (Homo sapiens, UniProt P34969); assay: Serotonin 5-HT7 radioligand binding ([3H]LSD); conditions: compound at 1 μM; read-out: Inhibition of ligand binding, Serotonin 5-HT7 (percent inhibition of specific binding)
human recombinant serotonin (5-Hydroxytryptamine) 5-HT7 receptor, sequence (P34969 whole entry): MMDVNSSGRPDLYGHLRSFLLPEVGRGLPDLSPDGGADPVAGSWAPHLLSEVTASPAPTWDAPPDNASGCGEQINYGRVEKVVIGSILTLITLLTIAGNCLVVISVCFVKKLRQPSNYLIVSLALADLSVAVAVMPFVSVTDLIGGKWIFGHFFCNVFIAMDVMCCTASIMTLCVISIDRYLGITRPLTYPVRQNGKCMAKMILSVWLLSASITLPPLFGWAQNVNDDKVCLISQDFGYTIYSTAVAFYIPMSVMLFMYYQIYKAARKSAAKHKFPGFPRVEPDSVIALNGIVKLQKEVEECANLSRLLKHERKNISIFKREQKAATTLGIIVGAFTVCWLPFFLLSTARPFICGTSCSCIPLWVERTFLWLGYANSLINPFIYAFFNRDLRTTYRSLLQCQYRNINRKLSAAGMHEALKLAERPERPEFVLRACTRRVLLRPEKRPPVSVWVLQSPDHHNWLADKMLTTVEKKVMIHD
Description: Receptor proteins were filtered and washed, the filters were then counted to determine [^3H]LSD specifically bound.

SMILES | inhibition at 1 µM [1] [%] | inhibition at 1 µM [2] [%] | inhibition at 1 µM [3] [%] | inhibition at 1 µM [4] [%] | inhibition at 1 µM [5] [%] | inhibition at 1 µM [6] [%] | inhibition at 1 µM [7] [%]
C/C(=C\n1c2c(c3cc(C)ccc31)CN(C)CC2)c1ccc(F)c(F)c1 [Compound 230, (E)-5-(2-(3,4-difluorophenyl)prop-1-enyl)-2,8-dimethyl-2,3,4,5-tetrahydro-1H-pyrido[4,3-b]indole] | 96 | 98 | 35 | 44 | 97 | 100 | 93
C/C(=C\n1c2c(c3cc(C)ccc31)CN(C)CC2)c1ccc(Cl)c(Cl)c1 [Compound 231, (E)-5-(2-(3,4-dichlorophenyl)prop-1-enyl)-2,8-dimethyl-2,3,4,5-tetrahydro-1H-pyrido[4,3-b]indole] | 97 | 101 | 58 | 40 | 97 | 98 | 94
C/C(=C\n1c2c(c3c(Cl)c(Cl)ccc31)CN(C)CC2)c1ccc(F)cc1 [Compound 232, (E)-8,9-dichloro-5-(2-(4-fluorophenyl)prop-1-enyl)-2-methyl-2,3,4,5-tetrahydro-1H-pyrido[4,3-b]indole] | 95 | 99 | 71 | 91 | 103 | 98 | 84
C/C(=C/n1c2c(c3cc(Cl)ccc31)CN(C)CC2)c1cccc(F)c1 [Compound 233, (Z)-8-chloro-5-(2-(3-fluorophenyl)prop-1-enyl)-2-methyl-2,3,4,5-tetrahydro-1H-pyrido[4,3-b]indole] | 99 | 97 | 85 | 48 | 102 | 101 | 95
C/C(=C\n1c2c(c3cc(Cl)ccc31)CN(C)CC2)c1cccc(F)c1 [Compound 234, (E)-8-chloro-5-(2-(3-fluorophenyl)prop-1-enyl)-2-methyl-2,3,4,5-tetrahydro-1H-pyrido[4,3-b]indole] | 94 | 100 | 69 | 73 | 101 | 102 | 99
C/C(=C\n1c2c(c3cc(C)ccc31)CN(C)CC2)c1ccc(O)cc1 [Compound 235, (E)-4-(1-(2,8-dimethyl-3,4-dihydro-1H-pyrido[4,3-b]indol-5(2H)-yl)prop-1-en-2-yl)phenol] | 96 | 98 | 73 | 80 | 99 | 101 | 96
COc1ccc(/C(C)=C/n2c3c(c4cc(C)ccc42)CN(C)CC3)cc1 [Compound 236, (E)-5-(2-(4-methoxyphenyl)prop-1-enyl)-2,8-dimethyl-2,3,4,5-tetrahydro-1H-pyrido[4,3-b]indole] | 99 | 99 | 20 | 76 | 98 | 102 | 93
C/C(=C/n1c2c(c3cc(Cl)ccc31)CN(C)CC2)c1ccccc1Cl [Compound 237, (Z)-8-chloro-5-(2-(2-chlorophenyl)prop-1-enyl)-2-methyl-2,3,4,5-tetrahydro-1H-pyrido[4,3-b]indole] | 95 | 101 | 88 | 45 | 101 | 98 | 100
C/C(=C\n1c2c(c3cc(Cl)ccc31)CN(C)CC2)c1ccccc1Cl [Compound 238, (E)-8-chloro-5-(2-(2-chlorophenyl)prop-1-enyl)-2-methyl-2,3,4,5-tetrahydro-1H-pyrido[4,3-b]indole] | 93 | 101 | 58 | 81 | 99 | 99 | 98
COc1ccc2c(c1)c1c(n2/C=C(/C)c2ccncc2)CCN(C)C1 [Compound 239, (Z)-8-methoxy-2-methyl-5-(2-(pyridin-4-yl)prop-1-enyl)-2,3,4,5-tetrahydro-1H-pyrido[4,3-b]indole] | 28 | 93 | 14 | 39 | 104 | 93 | 98
C/C(=C/n1c2c(c3cc(Cl)ccc31)CN(C)CC2)c1cc(F)c(F)cc1Cl [Compound 240, (Z)-8-chloro-5-(2-(2-chloro-4,5-difluorophenyl)prop-1-enyl)-2-methyl-2,3,4,5-tetrahydro-1H-pyrido[4,3-b]indole] | 99 | 99 | 95 | 34 | 104 | 99 | 99
C/C(=C\n1c2c(c3cc(Cl)ccc31)CN(C)CC2)c1cc(F)c(F)cc1Cl [Compound 241, (E)-8-chloro-5-(2-(2-chloro-4,5-difluorophenyl)prop-1-enyl)-2-methyl-2,3,4,5-tetrahydro-1H-pyrido[4,3-b]indole] | 98 | 93 | 89 | 47 | 101 | 100 | 96
C/C(=C/n1c2c(c3cc(C)ccc31)CN(C)CC2)c1ccccc1Cl [Compound 242, (Z)-5-(2-(2-chlorophenyl)prop-1-enyl)-2,8-dimethyl-2,3,4,5-tetrahydro-1H-pyrido[4,3-b]indole] | 97 | 98 | 88 | 55 | 107 | 99 | 100
C/C(=C\n1c2c(c3cc(Cl)c(Cl)cc31)CN(C)CC2)c1ccncc1 [Compound 243, (E)-7,8-dichloro-2-methyl-5-(2-(pyridin-4-yl)prop-1-enyl)-2,3,4,5-tetrahydro-1H-pyrido[4,3-b]indole] | 90 | 100 | 95 | 96 | 107 | 99 | 97
C/C(=C/n1c2c(c3cc(Cl)c(Cl)cc31)CN(C)CC2)c1ccncc1 [Compound 244, (Z)-7,8-dichloro-2-methyl-5-(2-(pyridin-4-yl)prop-1-enyl)-2,3,4,5-tetrahydro-1H-pyrido[4,3-b]indole] | 88 | 103 | 87 | 86 | 106 | 99 | 99
